Measurements taken from ChEMBL document CHEMBL5352452, “Design, synthesis and pharmacological evaluation of β-carboline derivatives as potential antitumor agent via targeting autophagy” (Eur J Med Chem, 2023).

Experiments:
Assay type in all cases: functional, cell-based
BGC-823 = assay: Antiproliferative activity against human BGC-823 cells assessed as inhibition of cell growth measured after 48 hrs by MTT assay; conditions: BGC-823, 48 h
MCF7 = assay: Antiproliferative activity against human MCF7 cells assessed as inhibition of cell growth measured after 48 hrs by MTT assay; conditions: MCF7, 48 h
A-375 = assay: Antiproliferative activity against human A-375 cells assessed as inhibition of cell growth measured after 48 hrs by MTT assay; conditions: A-375, 48 h
786-0 = assay: Antiproliferative activity against human 786-0 cells assessed as inhibition of cell growth measured after 48 hrs by MTT assay; conditions: 786-0, 48 h
HT-29 = assay: Antiproliferative activity against human HT-29 cells assessed as inhibition of cell growth measured after 48 hrs by MTT assay; conditions: HT-29, 48 h
[1] = Antiproliferative activity against human BIU-87 cells assessed as inhibition of cell growth measured after 48 hrs by MTT assay; conditions: BIU87, 48 h
KB = assay: Antiproliferative activity against human KB cells assessed as inhibition of cell growth measured after 48 hrs by MTT assay
CWR22R = assay: Antiproliferative activity against human 22Rv1 cells assessed as inhibition of cell growth measured after 48 hrs by MTT assay; conditions: 22Rv1, 48 h
SK-OV-3 = assay: Antiproliferative activity against human SK-OV-3 cells assessed as inhibition of cell growth measured after 48 hrs by MTT assay; conditions: SK-OV-3, 48 h
ECa-109 cell line = assay: Antiproliferative activity against human Eca-109 cells assessed as inhibition of cell growth measured after 48 hrs by MTT assay; conditions: ECa-109, 48 h

SMILES | IC50 (BGC-823) [µM] | IC50 (MCF7) [µM] | IC50 (A-375) [µM] | IC50 (786-0) [µM] | IC50 (HT-29) [µM] | IC50 (KB) [µM] | IC50 (SK-OV-3) [µM] | IC50 [1] [µM] | IC50 (CWR22R) [µM] | IC50 (ECa-109 cell line) [µM]
CN1CCN(Cc2cc3c4ccccc4n(Cc4ccc(F)cc4)c3c(CN3CCN(C)CC3)n2)CC1 | 48.7 | 36.4 | 16.8 | 2.68 | 5.98 | 28.6 | 8.72 | 16.9 | 5.62 | 9.87
CN1CCN(Cc2cc3c([nH]c4ccccc43)c(CN3CCN(C)CC3)n2)CC1 | > 100 | > 100 | > 100 | 28.4 | 83.3 | > 100 | > 100 | > 100 | > 100 | > 100
CN1CCN(Cc2cc3c4ccccc4n(Cc4ccccc4)c3c(CN3CCN(C)CC3)n2)CC1 | 58.3 | 27.5 | 13.6 | 2.36 | 6.42 | 24.2 | 15.6 | 15.5 | 6.47 | 16.8
CN1CCN(Cc2cc3c4ccccc4n(Cc4cccc(Cl)c4)c3c(CN3CCN(C)CC3)n2)CC1 | 36.8 | 15.8 | 12 | 3.21 | 5.68 | 15.6 | 4.62 | 8.01 | 4.93 | 11.3

More lines, main results first:

IC50 (BGC-823) [µM] | IC50 (MCF7) [µM] | IC50 (A-375) [µM] | IC50 (786-0) [µM] | IC50 (HT-29) [µM] | IC50 (KB) [µM] | IC50 (SK-OV-3) [µM] | SMILES | IC50 [1] [µM] | IC50 (CWR22R) [µM] | IC50 (ECa-109 cell line) [µM]
> 100 | > 100 | 85.9 | 13.4 | 46.8 | > 100 | 93.5 | CN1CCN(Cc2cc3c4ccccc4n(C)c3c(CN3CCN(C)CC3)n2)CC1 | > 100 | > 100 | > 100
98.5 | 50.2 | 17.2 | 2.32 | 11 | 34.8 | 27.3 | CCCCn1c2ccccc2c2cc(CN3CCN(C)CC3)nc(CN3CCN(C)CC3)c21 | 23.9 | 4.63 | 25.6
